One may read the EC50 as the concentration needed to bring the measured effect to its halfway point. Lower therefore signals greater potency.

We go through two compounds from BindingDB's records for doi:10.7270/Q25H7DRT (Nmmlsc, 2010).

The target in the assay is T1, Citrate synthase, peroxisomal [1-24] (Saccharomyces cerevisiae, UniProt P08679).
T1 construct: 1-24
Put plainly: yeast TOR pathway CIT2-GFP reporter potency – flow cytometry, MLPCN hits, dose response (AID 2744). (A flow cytometer gives signals particle by particle.)

Some results are limits rather than exact numbers.

T1 sequence (P08679 1-24): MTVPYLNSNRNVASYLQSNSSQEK

For the compound `ClC(Cl)(c1nnnn1-c1ccccc1)c1nnnn1-c1ccccc1` [SMR000173835], the EC50 is > 33 µM. `O=C(Nc1ccccc1)ON=C1CCCC1` [cyclopentanone O-(anilinocarbonyl)oxime]: the concentration for a half-maximal effect (EC50) is > 33 µM.
